The results in this text go back to PubChem BioAssay (NCI).

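Five compound concentrations were applied to cells in 96-well plates for 48 hours; endpoints were derived by simple linear interpolation of the resulting dose-response curve. Here, GI50 denotes the concentration required for 50% inhibition of growth. TGI denotes the concentration required for complete inhibition of growth.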

Among the test systems are SNB-75 CNS; MDA-MB-231 breast; BT-549 breast; OVCAR-8 ovarian; OVCAR-3 ovarian; HCT-116 colon; EKVX NSCLC; HCC-2998 colon.
Holding throughout (assay): growth of human tumour cells (NCI), 48 h

For `Cc1ccc2c(c1)C(C)Cc1c(Cl)ncnc1N2C` (centres undefined), the GI50 in the assay with SNB-75 CNS was 0.394 µM; with MDA-MB-231 breast, 2.55 µM; in the assay with BT-549 breast, 3 µM; in the assay on OVCAR-8 ovarian it was 3.77 µM; in the assay with OVCAR-3 ovarian, 2.26 µM; with HCT-116 colon, 3.01 µM. The GI50 in the assay on EKVX NSCLC is 2.33 µM; with HCC-2998 colon, 3.54 µM. The TGI with SNB-75 CNS worked out at 22.5 µM; in the assay with MDA-MB-231 breast it was 6.84 µM; in the assay with BT-549 breast, 9.74 µM; in the assay with OVCAR-8 ovarian, 23.8 µM; in the assay on OVCAR-3 ovarian, 5.4 µM; with HCT-116 colon it was 14.2 µM. Also, the TGI came out at 26.3 µM with EKVX NSCLC and 18.3 µM in the assay with HCC-2998 colon.
In the case of `CCCCCCCCCCCCOC1C(C(COC2OC(C3COC(C)(C)O3)C3OC(C)(C)OC23)NC(=O)NS(=O)(=O)c2ccccc2)OC2OC(C)(C)OC21` (centres undefined), the GI50 with SNB-75 CNS is 11.4 µM; with MDA-MB-231 breast, 9.94 µM; with BT-549 breast it was 3.61 µM; with OVCAR-8 ovarian, 3.35 µM; in the assay on OVCAR-3 ovarian it was 2.78 µM; with HCT-116 colon, 4.05 µM. Besides, the GI50 was 3.89 µM with EKVX NSCLC and 3.24 µM with HCC-2998 colon. The TGI with SNB-75 CNS was found to be 31.6 µM; in the assay with MDA-MB-231 breast it was 24.3 µM; with BT-549 breast, 13.1 µM; in the assay with OVCAR-8 ovarian, 23.9 µM; in the assay on OVCAR-3 ovarian, 8.39 µM; in the assay on HCT-116 colon, 16.3 µM. Besides, the results for the TGI in the assay on EKVX NSCLC and in the assay with HCC-2998 colon were 16.8 µM and 12.8 µM, respectively.
On to `CC(C)COCC(CN(Cc1ccccc1)c1ccccc1)N1CCCC1` (centres undefined), for which the GI50 with SNB-75 CNS was 3.47 µM; in the assay on MDA-MB-231 breast, 1.84 µM; with BT-549 breast, 5.75 µM; in the assay with OVCAR-8 ovarian it was 3.75 µM; in the assay with OVCAR-3 ovarian, 3.15 µM; in the assay on HCT-116 colon it was 2.52 µM. For the same compound, the GI50 was 2.85 µM with EKVX NSCLC and 2.25 µM with HCC-2998 colon. The TGI in the assay with SNB-75 CNS stood at 17.6 µM; in the assay on MDA-MB-231 breast it was 5.22 µM; in the assay on BT-549 breast, 19 µM; with OVCAR-8 ovarian it was 14.9 µM; in the assay with OVCAR-3 ovarian it was 12.1 µM; with HCT-116 colon, 10.4 µM. In addition, the TGI worked out at 15.1 µM in the assay with EKVX NSCLC and 6.16 µM in the assay on HCC-2998 colon.
For the compound `Nc1c([N+](=O)[O-])cc2c3c(cccc13)CC2`, the TGI with SNB-75 CNS, with MDA-MB-231 breast, in the assay with BT-549 breast, in the assay on OVCAR-8 ovarian, in the assay with OVCAR-3 ovarian and in the assay on HCT-116 colon was > 100 µM throughout. Further, the TGI in the assay with EKVX NSCLC and in the assay with HCC-2998 colon was > 100 µM in each case.
Turning to `COc1cc(NC(=O)CSc2nc3ccc(C)cc3c(=O)n2Cc2ccccc2)cc(OC)c1OC`, the GI50 with SNB-75 CNS was 1.82 µM; in the assay with MDA-MB-231 breast, 3.42 µM; in the assay with BT-549 breast it was 2.98 µM; with OVCAR-8 ovarian, 4.42 µM; in the assay on OVCAR-3 ovarian, 9.36 µM; in the assay on HCT-116 colon it was 3.38 µM. In addition, the GI50 in the assay with EKVX NSCLC is 8.59 µM; with HCC-2998 colon, > 100 µM. In addition, the TGI with SNB-75 CNS is 4.33 µM; with MDA-MB-231 breast it was > 100 µM; in the assay on BT-549 breast, 20 µM; in the assay on OVCAR-8 ovarian, > 100 µM; in the assay with OVCAR-3 ovarian, > 100 µM; with HCT-116 colon it was > 100 µM. In addition, the TGI with EKVX NSCLC and in the assay with HCC-2998 colon was > 100 µM each time.
With `Nc1nc(N)c2c(n1)NC(c1ccc(F)cc1)C1CCc3ccccc3C1=N2` (centres undefined), the GI50 is 11.3 µM with SNB-75 CNS; 5.8 µM in the assay on MDA-MB-231 breast; 3.89 µM in the assay with BT-549 breast; 8.07 µM in the assay with OVCAR-8 ovarian; 4.15 µM in the assay with OVCAR-3 ovarian; 3.04 µM with HCT-116 colon. Also, the GI50 in the assay with EKVX NSCLC was 2.83 µM; with HCC-2998 colon, 2.44 µM. Also, the TGI stood at 23.8 µM in the assay on SNB-75 CNS; 19.8 µM in the assay on MDA-MB-231 breast; 16.6 µM in the assay with BT-549 breast; 27 µM in the assay with OVCAR-8 ovarian; 16.1 µM in the assay with OVCAR-3 ovarian; 11.9 µM in the assay on HCT-116 colon. The TGI in the assay with EKVX NSCLC came out at 14.6 µM; with HCC-2998 colon it was 6.67 µM.
On to `O=P(CCCCP(=O)(c1ccccc1)c1ccccc1)(c1ccccc1)c1ccccc1.[Cl][Sn]([Cl])([c]1ccccc1)[c]1ccccc1`, for which the GI50 in the assay on SNB-75 CNS is 1.57 µM; with MDA-MB-231 breast, 0.626 µM; in the assay with BT-549 breast, 1.79 µM; in the assay on OVCAR-8 ovarian it was 2.3 µM; in the assay with OVCAR-3 ovarian, 1.61 µM; in the assay with HCT-116 colon, 1.71 µM. Moreover, the GI50 was 2.71 µM with EKVX NSCLC and 2.76 µM with HCC-2998 colon. Further, the TGI is 3.29 µM with SNB-75 CNS; 2.11 µM with MDA-MB-231 breast; 3.86 µM in the assay on BT-549 breast; 6.28 µM in the assay with OVCAR-8 ovarian; 3.99 µM in the assay on OVCAR-3 ovarian; > 100 µM in the assay on HCT-116 colon. In addition, the TGI came to 7.92 µM in the assay on EKVX NSCLC and 10.1 µM with HCC-2998 colon.
